Test results as given in publication PMC5288202, “Simultaneous inhibition of Vps34 kinase would enhance PI3Kδ inhibitor cytotoxicity in the B-cell malignancies” (Oncotarget, 2016).

Experiments:
MV4-11 [1] = assay: Induction of apoptosis (PARP cleavage); format: cell-based
PI3Kβ = molecular target: T1, PI3Kβ (Mus musculus, UniProt Q8BTI9); assay: PI3K isoforms cellular selectivity assay (AKT phosphorylation, NIH-3T3, LPA); format: cell-based; conditions: NIH-3T3 cells, LPA stimulation
T1 construct: endogenous in cells; host or cells: NIH-3T3
Protocol: (§1) Cells were lysed and AKT phosphorylation was determined by Western Blotting. Intensity of the bands was determined using ImageJ 1.42q (NIH, USA) and normalized to total AKT (loading control).

SKM-1 = assay: Anti-proliferative effect; format: cell-based; conditions: Homo sapiens, SKM-1, read-out: GI50 SKM-1
OCI-AML-2 [2] = assay: Induction of apoptosis (PARP cleavage); format: cell-based; conditions: OCI-AML-2, evident at 3 μM to 10 μM
Hs 505T = assay: Anti-proliferative effect; format: cell-based; conditions: Homo sapiens, read-out: GI50 Hs 505T
MOLM-14 = assay: Anti-proliferative effect; format: cell-based; conditions: AML (FLT3-ITD)
MV4-11 [3] = assay: Colony formation (colonogenic assay); format: cell-based; conditions: Homo sapiens, AML
MEC-2 [4] = assay: Cell cycle analysis; format: cell-based; conditions: MEC-2, 48 h treatment
MEC-2 [5] = assay: Autophagy markers LC3BII and p62 (immunoblotting); format: cell-based
NB4 = assay: Anti-proliferative effect; format: cell-based; conditions: Homo sapiens, read-out: GI50 NB4
OCI-AML-2 [6] = assay: Anti-proliferative effect; format: cell-based; conditions: Homo sapiens, OCI-AML2, read-out: GI50 OCI-AML-2
VPS34 = molecular target: T2, VPS34 (Homo sapiens, UniProt Q8NEB9); assay: ADP-Glo biochemical assay; conditions: purified protein, 50 μM ATP, read-out: IC50 against VPS34
T2 construct: purchased Invitrogen
Protocol: The activities of PI3Kα, PI3Kβ, PI3Kδ, PI3Kγ, PI3KC2α, PI3KC2β, Vps34, PI4Kα and PI4Kβ were determined by using ADP-Glo assay, a fluorescence-based immunoassay that measures kinase activity in terms of the amount of ADP produced. A kinase titration was performed to determine the concentration. The amount of recombinant kinases was optimized to keep the reaction velocity within the linear range, to obtain an adequate difference between the resulting signals of sample in/out the presence of enzyme. The optimized enzyme concentrations for evaluating the inhibitory activities of compounds were chosen as follows: 0.16 μg/ml, 6.0 μg/ml, 1.0 μg/ml, 5.0 μg/ml, 5.0 μg/ml, 10.0 μg/ml, 1.2 μg/ml, 1.2 μg/ml and 1.0 μg/ml for PI3Kα, PI3Kβ, PI3Kδ, PI3Kγ, PI3KC2α, PI3KC2β, Vps34, PI4Kα and PI4Kβ, respectively. The ATP concentration was optimized, 10 μM ATP for PI3Kα and PI3Kβ, and 50 μM ATP for detection of the other seven kinases. The PI3Kα, PI3Kβ, PI3Kδ, PI3Kγ, PI3KC2α, PI3KC2β kinase reactions were carried out in 10 μl volume in a 384-well plate in the kinase reaction buffer containing 50 mM Hepes pH 7.5, 3 mM MgCl2, 1 mM EGTA, 1 mM NaCl, 0.03% CHAPS and 2 mM DTT. […] 10 μl kinase detection reagent was dded and incubated for 30 min at room temperature, before the luminescence signal was read with an envision PerkinElmer plate reader.

MV4-11 [7] = assay: Autophagy markers LC3BII and p62 (immunoblotting); format: cell-based
NOMO-1 = assay: Anti-proliferative effect; format: cell-based; conditions: Homo sapiens, NOMO-1, read-out: GI50 NOMO-1
PI3Kα = molecular target: T3, PI3Kα (Mus musculus, UniProt P42337); assay: PI3K isoforms cellular selectivity assay (AKT phosphorylation, NIH-3T3, PDGF-BB); format: cell-based; conditions: NIH-3T3 cells, PDGF-BB stimulation
T3 construct: endogenous in cells; host or cells: NIH-3T3 (ATCC)
Protocol: as §1

MV4-11 [8] = assay: Anti-proliferative effect; format: cell-based; conditions: AML (FLT3-ITD)
PIK3C2A = molecular target: T4, PIK3C2A (Homo sapiens, UniProt O00443); assay: ADP-Glo biochemical assay; conditions: 50 μM ATP, read-out: IC50 against PIK3C2A
T4 construct: purchased Invitrogen

HEL = assay: Anti-proliferative effect; format: cell-based; conditions: Homo sapiens, read-out: GI50 HEL
OCI-AML-3 = assay: Anti-proliferative effect; format: cell-based; conditions: Homo sapiens, AML(FLT3wt)

T1 sequence (Q8BTI9 whole entry, canonical isoform): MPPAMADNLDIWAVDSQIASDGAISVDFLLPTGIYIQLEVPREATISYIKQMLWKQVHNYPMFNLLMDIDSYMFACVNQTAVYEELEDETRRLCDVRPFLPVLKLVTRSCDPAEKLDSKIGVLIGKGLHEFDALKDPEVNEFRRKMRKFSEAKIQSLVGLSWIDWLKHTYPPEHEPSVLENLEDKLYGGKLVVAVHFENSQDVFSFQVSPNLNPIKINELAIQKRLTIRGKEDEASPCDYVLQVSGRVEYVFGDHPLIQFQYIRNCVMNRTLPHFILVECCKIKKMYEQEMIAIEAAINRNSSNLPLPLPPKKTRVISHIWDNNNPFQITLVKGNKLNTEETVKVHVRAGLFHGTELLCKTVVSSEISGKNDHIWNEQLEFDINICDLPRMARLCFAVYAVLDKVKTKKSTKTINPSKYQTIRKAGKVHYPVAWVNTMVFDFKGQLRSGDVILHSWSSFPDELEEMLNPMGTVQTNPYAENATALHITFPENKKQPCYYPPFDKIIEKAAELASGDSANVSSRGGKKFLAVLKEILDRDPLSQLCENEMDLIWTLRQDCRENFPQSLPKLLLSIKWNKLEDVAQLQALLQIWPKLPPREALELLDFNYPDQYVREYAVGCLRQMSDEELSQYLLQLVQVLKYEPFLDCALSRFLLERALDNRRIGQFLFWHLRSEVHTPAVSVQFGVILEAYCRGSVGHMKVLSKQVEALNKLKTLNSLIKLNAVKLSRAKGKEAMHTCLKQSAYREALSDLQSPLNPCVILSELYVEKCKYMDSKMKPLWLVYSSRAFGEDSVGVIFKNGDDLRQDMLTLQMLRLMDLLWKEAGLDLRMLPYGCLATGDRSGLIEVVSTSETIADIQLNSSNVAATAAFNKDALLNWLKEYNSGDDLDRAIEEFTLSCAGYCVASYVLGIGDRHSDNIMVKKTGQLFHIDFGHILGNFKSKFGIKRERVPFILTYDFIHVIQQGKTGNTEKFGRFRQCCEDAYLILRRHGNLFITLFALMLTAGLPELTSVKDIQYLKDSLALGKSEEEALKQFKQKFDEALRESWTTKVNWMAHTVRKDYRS
T1 sequence (P26450 whole entry partner, canonical isoform): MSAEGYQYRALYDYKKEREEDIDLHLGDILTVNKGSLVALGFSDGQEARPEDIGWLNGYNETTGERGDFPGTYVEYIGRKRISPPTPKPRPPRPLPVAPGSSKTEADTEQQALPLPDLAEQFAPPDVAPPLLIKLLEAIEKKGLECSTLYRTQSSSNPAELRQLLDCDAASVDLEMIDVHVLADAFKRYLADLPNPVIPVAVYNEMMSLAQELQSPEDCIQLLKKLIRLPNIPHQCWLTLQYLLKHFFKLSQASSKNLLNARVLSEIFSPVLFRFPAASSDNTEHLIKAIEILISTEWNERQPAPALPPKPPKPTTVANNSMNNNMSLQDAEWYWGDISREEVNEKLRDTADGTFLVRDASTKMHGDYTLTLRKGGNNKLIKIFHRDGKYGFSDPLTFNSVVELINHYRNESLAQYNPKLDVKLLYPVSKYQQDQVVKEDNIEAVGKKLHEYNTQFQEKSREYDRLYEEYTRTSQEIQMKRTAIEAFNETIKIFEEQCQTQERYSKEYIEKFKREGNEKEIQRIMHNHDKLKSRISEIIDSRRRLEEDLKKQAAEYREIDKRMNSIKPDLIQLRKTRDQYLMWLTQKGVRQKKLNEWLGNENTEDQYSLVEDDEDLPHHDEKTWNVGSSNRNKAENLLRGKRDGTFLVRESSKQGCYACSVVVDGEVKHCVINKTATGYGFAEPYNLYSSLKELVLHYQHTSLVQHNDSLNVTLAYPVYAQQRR
T3 sequence (P42337 whole entry, canonical isoform): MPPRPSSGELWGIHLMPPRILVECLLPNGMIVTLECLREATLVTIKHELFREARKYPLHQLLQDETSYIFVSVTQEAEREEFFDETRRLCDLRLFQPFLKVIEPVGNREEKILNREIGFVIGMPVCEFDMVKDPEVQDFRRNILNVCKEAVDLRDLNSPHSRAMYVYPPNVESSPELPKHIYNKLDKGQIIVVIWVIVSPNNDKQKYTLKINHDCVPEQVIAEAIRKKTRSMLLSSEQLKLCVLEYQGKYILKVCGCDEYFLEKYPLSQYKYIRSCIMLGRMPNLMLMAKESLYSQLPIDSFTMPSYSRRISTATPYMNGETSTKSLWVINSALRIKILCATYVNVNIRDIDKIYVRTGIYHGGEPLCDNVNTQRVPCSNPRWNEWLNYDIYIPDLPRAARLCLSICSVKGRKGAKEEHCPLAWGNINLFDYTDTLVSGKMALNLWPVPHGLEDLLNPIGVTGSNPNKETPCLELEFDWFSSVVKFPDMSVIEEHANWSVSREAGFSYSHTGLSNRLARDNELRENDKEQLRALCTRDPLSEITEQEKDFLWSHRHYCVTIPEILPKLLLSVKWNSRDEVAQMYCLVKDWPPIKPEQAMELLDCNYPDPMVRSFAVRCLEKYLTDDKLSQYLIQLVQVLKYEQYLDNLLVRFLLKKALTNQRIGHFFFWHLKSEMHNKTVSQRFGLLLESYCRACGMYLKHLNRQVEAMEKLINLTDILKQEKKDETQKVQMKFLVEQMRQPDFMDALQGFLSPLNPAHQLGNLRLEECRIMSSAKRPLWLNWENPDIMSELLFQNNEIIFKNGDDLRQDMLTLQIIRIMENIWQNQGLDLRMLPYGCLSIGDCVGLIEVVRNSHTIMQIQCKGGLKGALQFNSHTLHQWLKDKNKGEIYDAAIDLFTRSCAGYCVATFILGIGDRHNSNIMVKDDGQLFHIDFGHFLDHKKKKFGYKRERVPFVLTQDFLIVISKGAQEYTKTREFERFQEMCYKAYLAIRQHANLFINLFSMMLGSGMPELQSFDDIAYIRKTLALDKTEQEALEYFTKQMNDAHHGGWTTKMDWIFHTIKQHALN
T3 sequence (P26450 whole entry partner, canonical isoform): as the sequence (P26450 whole entry partner, canonical isoform) above
T2 sequence (Q8NEB9 whole entry): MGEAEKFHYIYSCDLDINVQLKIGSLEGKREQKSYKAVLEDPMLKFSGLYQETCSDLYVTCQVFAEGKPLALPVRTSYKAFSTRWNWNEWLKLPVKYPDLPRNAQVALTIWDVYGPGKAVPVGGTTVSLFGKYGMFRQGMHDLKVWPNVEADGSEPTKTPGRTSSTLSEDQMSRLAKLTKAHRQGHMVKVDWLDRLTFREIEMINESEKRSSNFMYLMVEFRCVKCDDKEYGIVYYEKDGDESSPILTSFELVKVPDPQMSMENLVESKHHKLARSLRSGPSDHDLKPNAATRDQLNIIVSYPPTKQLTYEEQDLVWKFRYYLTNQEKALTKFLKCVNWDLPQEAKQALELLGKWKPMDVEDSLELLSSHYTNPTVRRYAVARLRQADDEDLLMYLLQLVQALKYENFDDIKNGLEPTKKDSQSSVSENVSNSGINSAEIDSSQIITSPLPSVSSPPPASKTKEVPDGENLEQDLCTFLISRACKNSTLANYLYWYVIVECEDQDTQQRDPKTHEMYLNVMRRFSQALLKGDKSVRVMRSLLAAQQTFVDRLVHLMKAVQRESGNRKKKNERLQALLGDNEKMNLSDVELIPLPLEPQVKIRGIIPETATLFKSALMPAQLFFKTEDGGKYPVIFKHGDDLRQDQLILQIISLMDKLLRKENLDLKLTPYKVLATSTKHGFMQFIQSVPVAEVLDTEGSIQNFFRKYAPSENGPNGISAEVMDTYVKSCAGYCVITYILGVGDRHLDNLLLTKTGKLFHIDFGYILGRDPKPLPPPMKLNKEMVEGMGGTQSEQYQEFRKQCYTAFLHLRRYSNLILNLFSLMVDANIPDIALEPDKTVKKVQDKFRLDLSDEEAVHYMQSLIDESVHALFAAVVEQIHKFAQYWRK

For Cc1nc(NC(=O)CN)sc1-c1cnc(Cl)c(NS(=O)(=O)c2ccc(C(C)(C)C)cc2)c1 [PI3KD/V-IN-01, 2-amino-N-(5-(5-(4-tert-butylphenylsulfonamido)-6-chloropyridin-3-yl)-4-methylthiazol-2-yl)acetamide], the induction of apoptosis (MV4-11 [1]) was “apparent PARP cleavage observed”, the EC50 (PI3Kβ) was > 3000 nM and the GI50 (SKM-1) was 1000 nM. For the same compound, the induction of apoptosis (OCI-AML-2 [2]) was “only a modest induction of apoptosis”, the GI50 (Hs 505T) was > 10000 nM and the GI50 (MOLM-14) was 510 nM. For the same compound, the GI50 (MOLM-14; Homo sapiens, MOLM-14) was < 1000 nM, the EC50 (MV4-11 [3]) was 124 nM and the cell cycle progression (MEC-2 [4]) was “arrested in the G0/G1 phase”. The “levels of the autophagy markers, LC3BII and p62” value (MEC-2 [5]) was “concentration-dependent increase”, the GI50 (NB4) was 1400 nM and the GI50 (OCI-AML-2 [6]) was 1000 nM. For the same compound, the IC50 (VPS34) was 19 nM, the “levels of the autophagy markers, LC3BII and p62” value (MV4-11 [7]) was “not observed” and the GI50 (NOMO-1) was 2300 nM. For the same compound, the EC50 (PI3Kα) was 2970 nM, the GI50 (MV4-11 [8]) was 780 nM and the GI50 (MV4-11 [8]; Homo sapiens, MV4-11) was < 1000 nM. For the same compound, the IC50 (PIK3C2A) was > 10000 nM, the GI50 (HEL) was > 10000 nM and the GI50 (OCI-AML-3) was 2400 nM.
